Experimental data from PubChem BioAssay (NCI).
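Dose response: 5 concentrations. Exposure: 48 h. Format: 96-well plates. Endpoint: linear interpolation; highest concentration if not reached. Abbreviation: GI50, concentration required for 50% inhibition of growth. TGI: concentration producing complete growth inhibition.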

Tests used:
Assay in all cases: NCI-60 cell line screen, 48 h
[1] = tested on: MCF7 breast
[2] = tested on: DMS 114 small cell lung
[3] = tested on: M19-MEL melanoma
[4] = tested on: SNB-78 CNS
[5] = tested on: KM20L2 colon
[6] = tested on: HOP-18 NSCLC
[7] = tested on: RXF-631 renal
[8] = tested on: XF 498 CNS
[9] = tested on: MDA-N

Row | Compound | GI50 [1] | TGI [1] | TGI [2] | TGI [3] | TGI [4] | TGI [5] | TGI [6] | TGI [7] | TGI [8] | TGI [9]
1 | COc1ccc(/C(=C2\O[C@@H]([C@H]3COC(C)(C)O3)[C@H]3OC(C)(C)O[C@@H]23)c2cc(OC)c(OC)c(OC)c2)cc1O | 3.78 µM | > 100 µM | – | – | – | – | – | – | – | –
2 | O=C1C=CC(=Nc2ccc3c(c2)C(Br)c2ccccc2-3)O1 (stereo unspecified) | – | – | > 100 µM | > 100 µM | > 100 µM | – | – | – | – | –
3 | Nc1ccn(C2O[C@H](CO)[C@@H](O)[C@@H]2O)c(=O)n1 (stereo partly specified) | 27.1 µM | > 100 µM | – | – | – | – | – | – | – | –
4 | COc1cc(/C=C/c2cc(/C=C/c3ccc(O)c(OC)c3)n(-c3ccccc3)n2)ccc1O | 0.265 µM | 1.7 µM | – | – | – | – | – | – | – | –
5 | CC1=C(C(=O)Nc2ccc([N+](=O)[O-])cc2)C(c2ccc(N(C)C)cc2)C(C(=O)Nc2ccc([N+](=O)[O-])cc2)=C(C)N1 | – | – | – | 33.2 µM | > 100 µM | 43.4 µM | – | – | – | –
6 | COc1ccc(OC)c(NC(=O)C(=O)C(C(C)=O)c2nc3ccc(Cl)cc3[nH]c2=O)c1 (stereo unspecified) | – | – | > 50 µM | > 50 µM | > 50 µM | > 50 µM | > 50 µM | > 50 µM | > 50 µM | –
7 | Clc1ccc(C2N3CCCCC3[C@@H]3c4[nH]c5ccccc5c4CCN23)cc1 (stereo partly specified) | – | – | > 100 µM | 94.7 µM | > 100 µM | 96.5 µM | > 100 µM | – | > 100 µM | –
8 | CC12CC[C@@H](C(C)(C)O)C1[C@@H](O)CC1(C)C2CCC2[C@@]3(C)CC[C@H](O)C(C)(C)C3C(O)C[C@]21C (stereo partly specified) | – | – | 38.2 µM | 52.1 µM | 38.8 µM | 28.3 µM | 41.1 µM | 69 µM | – | –
9 | CCCCCCCCCCCCCC(=O)OC1CC(=O)OC1CO (stereo unspecified) | – | – | > 100 µM | > 100 µM | > 100 µM | > 100 µM | 92.3 µM | – | > 100 µM | –
10 | O=C(N/N=C/c1ccccc1O)c1cccc([N+](=O)[O-])c1 | – | – | 39.3 µM | 66.2 µM | > 100 µM | > 100 µM | > 100 µM | – | > 100 µM | –
11 | N#CC(C(=N/O)/C(=N/O)C(C#N)c1ccc(Cl)cc1)c1ccc(Cl)cc1 (stereo unspecified) | – | – | > 100 µM | > 100 µM | > 100 µM | > 100 µM | > 100 µM | – | > 100 µM | –
12 | CCN(CC)c1c(C(=O)/C=C/c2ccccc2)c(-c2ccccc2)nn(C)c1=O | – | – | > 100 µM | > 100 µM | – | > 100 µM | – | – | > 100 µM | –
13 | OCCC1(O)CCC(O)CC1 (stereo unspecified) | – | – | > 100 µM | > 100 µM | > 100 µM | – | > 100 µM | – | – | –
14 | O=C1NNC=Nc2ccc(cc2)S(=O)(=O)c2ccc(cc2)N=CNNC1=O | – | > 100 µM | – | – | – | – | – | – | – | > 100 µM
15 | N#CSCC1CC(O)(c2ccccc2)C(c2ccccc2)C(c2ccc(Cl)cc2)O1 (stereo unspecified) | 1.27 µM | 3.21 µM | – | – | – | – | – | – | – | –
16 | CC1(C)CC(/C=C2/OC(=O)c3ccccc32)=C(C#N)C(=O)O1 | – | – | – | > 100 µM | > 100 µM | > 100 µM | – | > 100 µM | > 100 µM | –

Row | Compound | GI50 [1] | TGI [1] | TGI [2] | TGI [3] | TGI [4] | TGI [5] | TGI [6] | TGI [7] | TGI [8] | TGI [9]
17 | Cc1ccc(S(=O)(=O)C(CC(=O)N2CCCC2)C(=O)c2ccccc2)cc1 (stereo unspecified) | – | – | > 100 µM | – | > 100 µM | – | > 100 µM | > 100 µM | > 100 µM | –
18 | CSc1ccc(C2=NN(C(C)=O)C(c3cc(C)cs3)C2)cc1 (stereo unspecified) | 16.2 µM | 46.3 µM | – | – | – | – | – | – | – | –
19 | Cc1ccc(C)c(NC(=O)CC/C(=N\NC(=O)C(=O)NN)C(C)C(=O)c2ccc(O)cc2)c1 (stereo unspecified) | – | – | – | > 100 µM | > 100 µM | > 100 µM | > 100 µM | – | – | –
20 | Cc1cc(N(CCOS(C)(=O)=O)CCOS(C)(=O)=O)ccc1C=Nc1ccc(-c2nc(Cc3ccccc3)sc2C)cc1 | – | 49.7 µM | 27.7 µM | 24.3 µM | 81.2 µM | 21.2 µM | 23.4 µM | – | 9.12 µM | 29 µM
21 | COC1C(CN[N+](=O)CC2OC3OC(C)(C)OC3C2OC)OC2OC(C)(C)OC21 (stereo unspecified) | – | – | > 100 µM | > 100 µM | > 100 µM | – | > 100 µM | > 100 µM | – | –
22 | Cc1nc2cccc([N+](=O)[O-])c2c(NCCCN(C)C)c1C | – | 60.6 µM | – | – | – | – | – | – | – | > 100 µM
23 | CCCCCCCCCCCC(=O)CC(=O)c1c(O)cccc1O | – | – | 34.6 µM | 34.2 µM | 41 µM | 43.8 µM | 36.7 µM | – | 33.3 µM | –
24 | Cc1ccc(-c2c3c([nH]c(=O)c2C#N)-c2cc(F)ccc2OC3)cc1 | 52.7 µM | > 100 µM | – | – | – | – | – | – | – | –
25 | CNC(=O)OCc1c(COC(=O)NC)c(-c2ccc(Cl)c(Cl)c2)n2c1SCC2 | – | 27.2 µM | – | – | – | – | – | – | – | 42.7 µM
26 | CC1OC(n2cc(F)c(=O)[nH]c2=O)CCC1O (stereo unspecified) | – | > 72.3 µM | – | > 100 µM | > 100 µM | > 100 µM | > 100 µM | – | – | > 100 µM
27 | CCCCNC1=C(C(=O)OCC)C(=O)CO1 | – | – | > 100 µM | > 100 µM | – | > 100 µM | > 100 µM | – | > 100 µM | –
28 | CN1CCN(Cc2ccc(NC(=O)c3cncc(C#Cc4cnc(N)c5ccc(C#N)cc45)c3)cc2C(F)(F)F)CC1 | 0.688 µM | 1.86 µM | – | – | – | – | – | – | – | –
29 | CCOC(=O)NC(=O)c1cn(C2OC(COC(=O)CCCCCCCCC(=O)OCC3OC(n4cc(C(=O)NC(=O)OCC)c(=O)[nH]c4=O)C(O)C3O)C(O)C2O)c(=O)[nH]c1=O (stereo unspecified) | – | – | > 100 µM | > 100 µM | > 100 µM | > 100 µM | > 100 µM | > 100 µM | > 100 µM | –
30 | Cc1c(C(=O)N/N=C/c2ccc(Cl)cc2)nnn1-c1ccnc2c(C(F)(F)F)cccc12 | 2.27 µM | 5.61 µM | – | – | – | – | – | – | – | –
31 | O=C(O)CCCCC(CCSCc1ccccc1)SCc1ccccc1 (stereo unspecified) | 58.8 µM | > 100 µM | – | – | – | – | – | – | – | –
